Test results: patent US10172868B2, “Substituted quinazolines for inhibiting kinase activity” (NeuPharma, Inc., priority 2013, dated 2019)
pIC50: −log10 of the molar value.

Columns and labels:
[1] = molecular target: EGFR (ErbB1) T790M (Homo sapiens (Human), UniProt P00533, T790M); assay: Z'-LYTE kinase inhibition assay, EGFR T790M; assay type: biochemical; settings: read-out: % inhibition against EGFR T790M (Compound at 1 μM)
Description: Inhibitory activities of compounds against BTK, EGFR and EGFR mutants (EGFR L858R, EGFR T790M, EGFR L858R/T790M), FGFR1, FGFR2, JAK2, JAK3 and KDR were measured by Invitrogen using Z'-LYTE® Method as briefly described in the following. Test Compounds are screened in 1% DMSO (final) in the well. For 10 point titrations, 3-fold serial dilutions are conducted from the starting concentration. All ATP Solutions are diluted to a 4× working concentration in Kinase Buffer (50 mM HEPES pH 7.5, 0.01% BRIJ-35, 10 mM MgCl2, 1 mM EGTA). Peptide/Kinase Mixtures are diluted to a 2× working concentration in the appropriate Kinase Buffers as described below. (iii) Peptide/Kinase Mixtures for Measurement of EGFR (ErbB1) T790M: […] After the 1 hour Kinase Reaction incubation, 5 μL of a 1:64 dilution of Development Reagent B is added. Reaction starts by 30-second shaking of mixture consisting of 2.5 μL 4× test compound, […] 2× kinase reaction mixture and 2.5 μL 4×ATP Solution on Bar-coded Corning, low volume NBS, black 384-well plate (Corning Cat. #3676). Then the mixture is incubated for 60-minute at room temperature for the kinase reaction, followed by addition of 5 μL of a 1:1024 dilution of development reagent A and 30-second plate shake. The mixture is then incubated for another 60-minute at room temperature for development reaction. Finally fluorescence is read by plate reader.

[2] = test system: H3255 cells; assay: Inhibition of cancer cell growth, MTT assay, H3255; settings: Homo sapiens, NCI-H3255, 72 h, read-out: IC50 in H3255 cells
Description: Inhibition of cell growth by compounds was measured using MTT assay (Mosmann, T., Journal of Immunological Methods, 1983, 65, 55-63). Tumor cell lines were purchased from ATCC (American Type Culture Collection, Manassas, Va.). All cell lines were maintained in RPMI 1640 (Hyclone) supplemented with 10% fetal bovine serum (FBS, Hyclone), glutamine (2 mM, Hyclone), and antibiotics (penicillin 100 U/mL and streptomycin 50 μg/mL) at 37° C. in a humidified atmosphere of 5% CO2 in air. Taxol (as a positive control. Sigma) and compounds were dissolved in DMSO (Sigma), and the final concentration of DMSO in the medium was 1%. Tumor cells were plated in 96-well plates at densities of about 4000 cells/well of a 96-well plate and allowed to adhere/grow for 24 h. They were then treated with various concentrations of drug for 72 h, 3-(4,5-Dimethylthiazol-2-yl)-2,5-diphenyltetrazolium bromide (MTT, Sigma) was used to determine the number of viable cells at the time of compound addition and the number of cells remaining after 72 h compound exposure. The number of cells remaining after 72 h was compared to the number of viable cells at the time of compound addition by measuring the absorbance at 570 nm, allowing for the calculation of growth inhibition.
All concentrations of compounds were tested in triplicate and controls were averaged over 4 wells. IC50 was calculated by plotting the concentration of compound vs the percentage of inhibition in treated wells using GraphPad Prism 5.

[3] = molecular target: JAK3 (Homo sapiens (Human), UniProt P52333); assay: Z'-LYTE kinase inhibition assay, JAK3; assay type: biochemical; settings: read-out: IC50 against JAK3
Chain of JAK3 (P52333 whole entry): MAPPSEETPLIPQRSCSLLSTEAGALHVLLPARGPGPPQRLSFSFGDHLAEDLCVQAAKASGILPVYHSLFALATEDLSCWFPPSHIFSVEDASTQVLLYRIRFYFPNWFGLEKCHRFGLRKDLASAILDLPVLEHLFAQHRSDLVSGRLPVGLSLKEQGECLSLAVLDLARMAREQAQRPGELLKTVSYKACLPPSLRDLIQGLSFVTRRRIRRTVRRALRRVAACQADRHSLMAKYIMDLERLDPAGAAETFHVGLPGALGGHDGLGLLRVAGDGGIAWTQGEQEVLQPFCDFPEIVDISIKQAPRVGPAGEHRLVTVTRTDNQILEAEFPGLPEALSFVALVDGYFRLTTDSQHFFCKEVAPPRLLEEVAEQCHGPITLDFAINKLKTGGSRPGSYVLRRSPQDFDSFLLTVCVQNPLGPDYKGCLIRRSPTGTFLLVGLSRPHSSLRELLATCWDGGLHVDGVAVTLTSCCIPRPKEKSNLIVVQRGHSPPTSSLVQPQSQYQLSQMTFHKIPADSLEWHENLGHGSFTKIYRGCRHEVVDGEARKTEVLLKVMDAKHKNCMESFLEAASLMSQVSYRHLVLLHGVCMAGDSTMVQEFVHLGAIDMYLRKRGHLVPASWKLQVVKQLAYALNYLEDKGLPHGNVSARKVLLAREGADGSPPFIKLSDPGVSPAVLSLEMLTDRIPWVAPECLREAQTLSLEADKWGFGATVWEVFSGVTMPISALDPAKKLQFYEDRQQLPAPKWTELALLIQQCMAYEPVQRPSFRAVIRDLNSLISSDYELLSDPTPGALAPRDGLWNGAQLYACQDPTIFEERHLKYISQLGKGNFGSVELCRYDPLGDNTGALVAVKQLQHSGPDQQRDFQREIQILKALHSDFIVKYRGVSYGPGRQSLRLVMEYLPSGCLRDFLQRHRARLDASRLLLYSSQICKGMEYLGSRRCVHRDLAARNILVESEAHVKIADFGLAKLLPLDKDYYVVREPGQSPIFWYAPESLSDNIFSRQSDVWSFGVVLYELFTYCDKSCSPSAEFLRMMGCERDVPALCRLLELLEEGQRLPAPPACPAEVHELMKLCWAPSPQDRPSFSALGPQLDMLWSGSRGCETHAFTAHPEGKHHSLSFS
Description: (§1) Inhibitory activities of compounds against BTK, EGFR and EGFR mutants (EGFR L858R, EGFR T790M, EGFR L858R/T790M), FGFR1, FGFR2, JAK2, JAK3 and KDR were measured by Invitrogen using Z'-LYTE® Method as briefly described in the following.
(§2) Test Compounds are screened in 1% DMSO (final) in the well. For 10 point titrations, 3-fold serial dilutions are conducted from the starting concentration. All ATP Solutions are diluted to a 4× working concentration in Kinase Buffer (50 mM HEPES pH 7.5, 0.01% BRIJ-35, 10 mM MgCl2, 1 mM EGTA). Peptide/Kinase Mixtures are diluted to a 2× working concentration in the appropriate Kinase Buffers as described below.
(v) Peptide/Kinase Mixtures for Measurement of JAK3:
The 2×JAK3/Tyr 06 mixture is prepared in 50 mM HEPES pH 7.5, 0.01% BRIJ-35, 10 mM MgCl2, 1 mM EGTA. The final 10 μL Kinase Reaction consists of 0.29-1.34 ng JAK3 and 2 μM Tyr 06 in 50 mM HEPES pH 7.5, 0.010/% BRIJ-35, 10 mM MgCl2, 1 mM EGTA. After the 1 hour Kinase Reaction incubation, 5 μL of a 1:64 dilution of Development Reagent A is added.
(§3) Reaction starts by 30-second shaking of mixture consisting of 2.5 μL 4× test compound, […] 2× kinase reaction mixture and 2.5 μL 4×ATP Solution on Bar-coded Corning, low volume NBS, black 384-well plate (Corning Cat. #3676). Then the mixture is incubated for 60-minute at room temperature for the kinase reaction, followed by addition of 5 μL of a 1:1024 dilution of development reagent A and 30-second plate shake. The mixture is then incubated for another 60-minute at room temperature for development reaction. Finally fluorescence is read by plate reader.
(§4) To determine IC50 of a compound against EGFR, EGFR mutant and other kinases, a series of concentrations of the compound were tested for the inhibition. […] The scale utilized in Table 4 is as follows: +++ less than 100 nM, ++ 100-500 nM and + greater than 500 nM.

[4] = test system: H1975 tumor xenografts; assay: Inhibition of tumor growth in H1975 xenograft model; assay type: in vivo, BALB/c female nude mice; settings: QD x 14; for Tumor Volume Pre-treatment: baseline before treatment
Description: H1975 cells were implanted in BALB/c female nude mice and grown as tumor xenografts. When tumors achieved 120-200 mm^3, mice were assigned into treatment and control groups using randomized block design based upon their tumor volumes. Each group contained 6 tumor-bearing mice. Tumors were measured twice weekly in two dimensions using a caliper, and the tumor volume was calculated from two-dimensional measurements using the equation V=0.5×a×b^2 where a and b are the long and short diameters of the tumor, respectively. Relative tumor volume (RTV) was defined as TVt/TVi, the ratio of the volume on a given day (TVt) and the volume at the start of treatment (TVi). Relative tumor growth rate (T/C) was defined as RTVT/RTVC, the ratio of relative tumor volume of treatment group (RTVT) and relative tumor volume of control group (RTVC) on a given day.

[5] = molecular target: KDR (VEGFR2) (Homo sapiens (Human), UniProt P35968); assay: Z'-LYTE kinase inhibition assay, KDR; assay type: biochemical; settings: read-out: IC50 against KDR
Chain of KDR (VEGFR2) (P35968 20-1356): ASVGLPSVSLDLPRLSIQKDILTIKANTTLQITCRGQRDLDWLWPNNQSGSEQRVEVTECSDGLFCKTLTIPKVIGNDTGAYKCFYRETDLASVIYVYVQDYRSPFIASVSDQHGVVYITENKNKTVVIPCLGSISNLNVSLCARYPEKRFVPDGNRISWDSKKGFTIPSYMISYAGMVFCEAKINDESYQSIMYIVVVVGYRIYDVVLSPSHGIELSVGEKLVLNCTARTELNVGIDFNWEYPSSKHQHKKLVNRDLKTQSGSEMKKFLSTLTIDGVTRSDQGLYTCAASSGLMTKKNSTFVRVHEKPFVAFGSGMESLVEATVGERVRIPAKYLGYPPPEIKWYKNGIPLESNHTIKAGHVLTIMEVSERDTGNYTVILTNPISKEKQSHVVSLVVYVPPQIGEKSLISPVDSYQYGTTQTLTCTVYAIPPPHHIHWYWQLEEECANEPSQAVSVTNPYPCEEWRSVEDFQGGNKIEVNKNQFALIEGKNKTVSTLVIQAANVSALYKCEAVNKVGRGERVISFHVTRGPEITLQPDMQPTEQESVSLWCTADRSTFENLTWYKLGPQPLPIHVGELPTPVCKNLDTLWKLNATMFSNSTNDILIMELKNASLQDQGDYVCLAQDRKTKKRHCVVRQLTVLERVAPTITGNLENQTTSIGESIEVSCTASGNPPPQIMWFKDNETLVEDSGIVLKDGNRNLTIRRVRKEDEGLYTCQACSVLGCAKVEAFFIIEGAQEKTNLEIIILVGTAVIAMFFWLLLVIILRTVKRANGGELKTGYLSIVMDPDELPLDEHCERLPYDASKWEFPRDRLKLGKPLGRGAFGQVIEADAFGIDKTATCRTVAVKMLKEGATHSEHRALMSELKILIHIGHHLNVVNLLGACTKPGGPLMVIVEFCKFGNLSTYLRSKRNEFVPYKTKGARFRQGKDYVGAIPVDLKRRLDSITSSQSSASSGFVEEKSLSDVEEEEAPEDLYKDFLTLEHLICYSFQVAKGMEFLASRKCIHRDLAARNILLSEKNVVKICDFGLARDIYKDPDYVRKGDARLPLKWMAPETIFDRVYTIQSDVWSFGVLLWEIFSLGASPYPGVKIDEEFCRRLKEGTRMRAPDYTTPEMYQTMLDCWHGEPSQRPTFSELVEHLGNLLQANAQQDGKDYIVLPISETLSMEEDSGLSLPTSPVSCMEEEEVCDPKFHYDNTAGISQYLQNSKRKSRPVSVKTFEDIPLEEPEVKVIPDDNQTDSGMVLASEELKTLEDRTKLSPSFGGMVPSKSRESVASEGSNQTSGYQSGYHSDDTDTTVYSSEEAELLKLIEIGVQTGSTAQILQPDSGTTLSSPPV
Description: as §1, §2
(v) Peptide/Kinase Mixtures for Measurement of KDR (VEGFR2):
The 2×KDR (VEGFR2)/Tyr 01 mixture is prepared in 50 mM HEPES pH 7.5, 0.01% BRIJ-35, 10 mM MgCl2, 1 mM EGTA. The final 10 μL Kinase Reaction consists of 0.5-11.7 ng KDR (VEGFR2) and 2 μM Tyr 01 in 50 mM HEPES pH 7.5, 0.01% BRIJ-35, 10 mM MgCl2, 1 mM EGTA. After the 1 hour Kinase Reaction incubation, 5 μL of a 1:256 dilution of Development Reagent B is added.
as §3, §4

[6] = molecular target: FGFR2 (Homo sapiens (Human), UniProt P21802); assay: Z'-LYTE kinase inhibition assay, FGFR2; assay type: biochemical; settings: read-out: IC50 against FGFR2
Chain of FGFR2 (P21802 22-821): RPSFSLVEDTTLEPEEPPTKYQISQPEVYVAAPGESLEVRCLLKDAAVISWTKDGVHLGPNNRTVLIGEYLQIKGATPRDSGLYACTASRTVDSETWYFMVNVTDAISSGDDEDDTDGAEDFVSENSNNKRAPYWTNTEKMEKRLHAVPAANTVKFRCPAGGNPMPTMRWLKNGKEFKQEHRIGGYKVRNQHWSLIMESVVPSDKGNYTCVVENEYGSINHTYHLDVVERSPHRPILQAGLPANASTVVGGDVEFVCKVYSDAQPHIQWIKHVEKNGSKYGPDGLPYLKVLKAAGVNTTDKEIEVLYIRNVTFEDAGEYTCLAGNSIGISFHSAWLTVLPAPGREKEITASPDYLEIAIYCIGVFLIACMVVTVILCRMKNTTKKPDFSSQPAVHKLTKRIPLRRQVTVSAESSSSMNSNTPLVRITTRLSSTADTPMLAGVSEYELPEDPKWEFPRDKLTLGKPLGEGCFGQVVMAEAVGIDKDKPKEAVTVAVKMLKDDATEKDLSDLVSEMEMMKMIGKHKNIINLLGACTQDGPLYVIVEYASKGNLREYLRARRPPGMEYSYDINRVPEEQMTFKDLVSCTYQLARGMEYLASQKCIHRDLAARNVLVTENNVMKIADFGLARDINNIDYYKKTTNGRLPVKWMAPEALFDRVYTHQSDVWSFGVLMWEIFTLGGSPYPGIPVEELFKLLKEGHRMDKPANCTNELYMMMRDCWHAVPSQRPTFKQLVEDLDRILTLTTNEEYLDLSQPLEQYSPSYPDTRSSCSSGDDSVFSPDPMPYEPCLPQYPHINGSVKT
Description: as §1, §2
(v) Peptide/Kinase Mixtures for Measurement of FGFR2:
The 2×FGFR2/Tyr 04 mixture is prepared in 50 mM HEPES pH 7.5, 0.01% BRIJ-35, 10 mM MgCl2, 4 mM MnCl2, 1 mM EGTA, 2 mM DTT. The final 10 μL Kinase Reaction consists of 0.19-2.36 ng FGFR2 and 2 μM Tyr 04 in 50 mM HEPES pH 7.5, 0.01% BRIJ-35, 10 mM MgCl2, 2 mM MnCl2, 1 mM EGTA, 1 mM DTT. After the 1 hour Kinase Reaction incubation, 5 μL of a 1:64 dilution of Development Reagent B is added.
Reaction starts by 30-second shaking of mixture consisting of 2.5 μL 4× test compound, […] 2× kinase reaction mixture and 2.5 μL 4×ATP Solution on Bar-coded Corning, low volume NBS, black 384-well plate (Corning Cat. #3676). […] Finally fluorescence is read by plate reader. […]

[7] = 30 mg/kg, Intraperitoneal injection

Chain of EGFR (ErbB1) T790M (P00533 25-1210 T790M): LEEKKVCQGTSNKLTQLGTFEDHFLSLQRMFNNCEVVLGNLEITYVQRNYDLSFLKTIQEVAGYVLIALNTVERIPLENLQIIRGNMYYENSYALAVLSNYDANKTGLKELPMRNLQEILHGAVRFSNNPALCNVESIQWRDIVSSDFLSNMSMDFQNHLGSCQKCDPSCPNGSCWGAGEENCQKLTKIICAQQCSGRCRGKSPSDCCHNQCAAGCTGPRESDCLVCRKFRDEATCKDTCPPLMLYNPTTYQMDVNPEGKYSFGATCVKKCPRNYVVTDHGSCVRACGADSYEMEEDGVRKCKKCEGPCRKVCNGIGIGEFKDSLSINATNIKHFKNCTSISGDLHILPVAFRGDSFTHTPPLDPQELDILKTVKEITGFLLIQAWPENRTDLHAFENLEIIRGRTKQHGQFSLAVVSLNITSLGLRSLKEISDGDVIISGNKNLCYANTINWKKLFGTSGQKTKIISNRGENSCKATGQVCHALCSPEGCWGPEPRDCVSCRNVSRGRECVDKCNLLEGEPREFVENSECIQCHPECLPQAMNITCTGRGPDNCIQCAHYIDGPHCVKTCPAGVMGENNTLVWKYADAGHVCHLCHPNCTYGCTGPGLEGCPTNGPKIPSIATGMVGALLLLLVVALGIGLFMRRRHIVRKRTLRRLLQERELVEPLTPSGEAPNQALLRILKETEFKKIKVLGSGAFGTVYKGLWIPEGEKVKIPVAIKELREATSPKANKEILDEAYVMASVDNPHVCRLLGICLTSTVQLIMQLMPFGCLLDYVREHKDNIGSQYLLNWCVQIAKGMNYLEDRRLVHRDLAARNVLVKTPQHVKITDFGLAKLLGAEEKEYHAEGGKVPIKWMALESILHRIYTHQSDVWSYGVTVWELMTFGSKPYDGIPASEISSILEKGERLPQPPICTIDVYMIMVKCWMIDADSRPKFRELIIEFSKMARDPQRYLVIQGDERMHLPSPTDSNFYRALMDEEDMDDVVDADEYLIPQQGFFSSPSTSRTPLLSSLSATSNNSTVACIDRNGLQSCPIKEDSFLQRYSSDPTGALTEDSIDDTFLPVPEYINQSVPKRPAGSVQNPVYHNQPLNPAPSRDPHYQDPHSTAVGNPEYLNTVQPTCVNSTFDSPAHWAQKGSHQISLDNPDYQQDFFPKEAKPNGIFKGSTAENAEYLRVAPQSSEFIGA

| inhibition at 1 µM [1] | pIC50 [2] | SMILES | also measured |
| --- | --- | --- | --- |
| < 50% |  | Fc1cccc(-c2cccc3cnc(Nc4ccc(N5CCOCC5)cc4)nc23)c1 [Example C009, 8-(3-fluorophenyl)-N-(4-morpholinophenyl)quinazolin-2-amine] |  |
|  | < 6.30 | C=CC(=O)Nc1cccc(-c2cccc3cnc(Nc4ccc(N5CCN(C)CC5)cc4F)nc23)c1 [Example C044, N-(3-(2-((2-fluoro-4-(4-methylpiperazin-1-yl)phenyl)amino)quinazolin-8-yl)phenyl)acrylamide] | pIC50 [3]: > 7.00 |
| < 50% |  | Clc1ccccc1-c1cccc2cnc(Nc3ccc(N4CCOCC4)cc3)nc12 [Example C011, 8-(2-chlorophenyl)-N-(4-morpholinophenyl)quinazolin-2-amine] |  |
| < 50% |  | Clc1cccc(-c2cccc3cnc(Nc4ccc(N5CCOCC5)cc4)nc23)c1 [Example C008, 8-(3-chlorophenyl)-N-(4-morpholinophenyl)quinazolin-2-amine] |  |
| > 50% |  | C=CC(=O)Nc1cccc(-c2nccc3cnc(Nc4ccc(N5CCOCC5)cc4)nc23)c1 [Example C012, N-(3-(2-((4-morpholinophenyl)amino)pyrido[3,4-d]pyrimidin-8-yl)phenyl)acrylamide] |  |
| < 50% |  | Fc1ccccc1-c1cccc2cnc(Nc3ccc(N4CCOCC4)cc3)nc12 [Example C010, 8-(2-fluorophenyl)-N-(4-morpholinophenyl)quinazolin-2-amine] |  |

Second part, the compound before the results:

| SMILES | inhibition at 1 µM [1] | pIC50 [2] | also measured |
| --- | --- | --- | --- |
| C=CC(=O)Nc1cccc(-c2cccc3cnc(Nc4ccc(N5CCOCC5)cc4OC)nc23)c1 [Example C002, N-(3-(2-((2-methoxy-4-morpholinophenyl)amino)quinazolin-8-yl)phenyl)acrylamide] | > 50% | < 6.30 |  |
| C=CC(=O)Nc1cccc(-c2cccc3cnc(Nc4ccc(N5CCN(C)CC5)nc4)nc23)c1 [Example C041, N-(3-(2-((6-(4-methylpiperazin-1-yl)pyridin-3-yl)amino)quinazolin-8-yl)phenyl)acrylamide] |  | < 6.30 | pIC50 [3]: > 7.00; T/C (relative tumor growth rate) [4, 7]: 48.7%; Tumor Volume Post-treatment [4, 7]: 1021.2 mm^3; Tumor Volume Pre-treatment [4, 7]: 151.7 mm^3; pIC50 [5]: > 7.00 |
| C=CC(=O)Nc1cccc(-c2cccc3cnc(Nc4ccc(N5CCN(C)CC5)cc4OC)nc23)c1 [Example C003, N-(3-(2-((2-methoxy-4-(4-methylpiperazin-1-yl)phenyl)amino)quinazolin-8-yl)phenyl)acrylamide] | > 50% | < 6.30 |  |
| C=CC(=O)Nc1cccc(-c2cccc3cnc(Nc4ccc(N5CCOCC5)cc4)nc23)c1 [Example C001, N-(3-(2-((4-morpholinophenyl)amino)quinazolin-8-yl)phenyl)acrylamide] | > 50% | < 6.30 |  |
| C=CC(=O)Nc1cccc(-c2nccc3c(N)nc(Nc4ccc(N5CCOCC5)cc4)nc23)c1 [Example C005, N-(3-(4-amino-2-((4-morpholinophenyl)amino)pyrido[3,4-d]pyrimidin-8-yl)phenyl)acrylamide] | < 50% |  |  |
| Fc1ccc(Cl)cc1-c1cccc2cnc(Nc3ccc(N4CCOCC4)cc3)nc12 [Example C007, 8-(5-chloro-2-fluorophenyl)-N-(4-morpholinophenyl)quinazolin-2-amine] | < 50% |  |  |
| C=CC(=O)Nc1cccc(-c2cccc3cnc(Nc4ccc(N5CCN(C)CC5)cc4)nc23)c1 [Example C021, N-(3-(2-((4-(4-methylpiperazin-1-yl)phenyl)amino)quinazolin-8-yl)phenyl)acrylamide] |  | 6.30 to 7.00 | pIC50 [6]: > 7.00; pIC50 [3]: > 7.00; T/C (relative tumor growth rate) ([4]; 60 mg/kg, Oral): 30.5%; Tumor Volume Post-treatment ([4]; 60 mg/kg, Oral): 633.5 mm^3; Tumor Volume Pre-treatment ([4]; 60 mg/kg, Oral): 152.5 mm^3; pIC50 [5]: > 7.00 |
| C=CC(=O)Nc1cccc(-c2cccc3cnc(Nc4ccc(N5CCN(CCO)CC5)cc4)nc23)c1 [Example C059, N-(3-(2-((4-(4-(2-hydroxyethyl)piperazin-1-yl)phenyl)amino)quinazolin-8-yl)phenyl)acrylamide] |  | 6.30 to 7.00 | pIC50 [3]: > 7.00; T/C (relative tumor growth rate) ([4]; 60 mg/kg, Oral): 35.3%; Tumor Volume Post-treatment ([4]; 60 mg/kg, Oral): 746.4 mm^3; Tumor Volume Pre-treatment ([4]; 60 mg/kg, Oral): 151.6 mm^3; pIC50 [5]: > 7.00 |
| c1ccc(-c2cccc3cnc(Nc4ccc(N5CCOCC5)cc4)nc23)cc1 [Example C004, N-(4-morpholinophenyl)-8-phenylquinazolin-2-amine] | < 50% |  |  |
